In brackets after ≈: the same amount, converted by molar mass.
Assays:
[1] = system: Staphylococcus epidermidis; experiment: Broth microdilution MIC, Staphylococcus epidermidis; type: cell-based
[2] = system: established methicillin-resistant S. epidermidis biofilm (ATCC 35984, NRS 101); experiment: Microtiter dish biofilm eradication assay (crystal violet); type: cell-based, Staphylococcus epidermidis; details: 24 h
Method: We used S. epidermidis ATCC 35984 (NRS 101), a high-slime producer isolated in septicemic patients, with colonized intravascular catheters from Tennessee, USA [10]. This strain is a multi-drug resistant strain, showing resistance to methicillin, erythromycin, kanamycin, gentamicin, clindamycin and trimethoprim. Briefly, an overnight culture of biofilm—producing MRSE was diluted 1:100 in a fresh medium containing 1% glucose in a 96-well tissue-culture treated plate. Bacteria were incubated at 37°C for 24 h to permit the formation of an adherent biofilm. The medium was removed and the biofilm was washed with PBS. Antibacterial drugs (vancomycin and linezolid) and rhodanine 2, at indicated concentration, were added and incubated again at 37°C for 24 h. Plates were washed again and biofilms were stained with 0.1% (wt/vol) crystal violet. Plates were washed with PBS, air-dried and biofilm mass was dissolved using 95% ethanol. The intensity of crystal violet was measured using a micro plate reader (SpectraMax i3x; Molecular Devices, Sunnyvale, CA, USA). Data are presented as the percent biofilm mass reduction in treated groups in relation to untreated wells.

SMILES	MIC [1]	biofilm mass reduction ([2]; at 4 times its MIC, relative to untreated wells)	biofilm mass reduction ([2]; at 8 times its MIC, relative to untreated wells)	biofilm mass reduction ([2]; high concentrations (up to 8 X MIC))
O=C(O)[C@H](Cc1ccccc1)N1C(=O)/C(=C/c2cccc(-c3ccc(Cl)c(Cl)c3)c2)SC1=S [Rh 2]	4 µM (≈ 2.06 µg/mL)	more than 35%	> 45%	
CC(=O)NC[C@H]1CN(c2ccc(N3CCOCC3)c(F)c2)C(=O)O1 [Linezolid, linezolid, reference compound]				not significantly decreased
